Source: patent publication US8207216B2, “Benzofuran-3-yl(indol-3-yl) maleimides as potent GSK3 inhibitors” (The Board of Trustees of the University of Illinois, priority 2006, dated 2012)

Assays:
[1] = system: MIAPaCa-2; assay: Antiproliferation MTS assay, pancreatic cancer cells; type: cell-based; conditions: Homo sapiens
[2] = system: pancreatic cancer cell lines; conditions: BXPC3, HupT3 and MiaPaCa-2; Ougolkov et al. (2007) Blood 110: 735-742; cited from earlier work
[3] = system: mice; conditions: Hanania et al. 2005, Brody et al. 2003; cited from earlier work
[4] = biological target: T1, recombinant human His6-GSK-3β (Homo sapiens, UniProt P49841); assay: GSK-3β kinase assay, [γ32P] transfer to primed glycogen synthase peptide; type: biochemical; conditions: 10 μM ATP; 10 μM pGSM peptide; 30 minutes at 30° C.; read-out: IC50 (nM), GSK-3β inhibition;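 also: phosphate incorporation quantified by liquid scintillation counting of the filters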
T1 construct: His6; purchased EMD Biosciences
T1 sequence (P49841 whole entry): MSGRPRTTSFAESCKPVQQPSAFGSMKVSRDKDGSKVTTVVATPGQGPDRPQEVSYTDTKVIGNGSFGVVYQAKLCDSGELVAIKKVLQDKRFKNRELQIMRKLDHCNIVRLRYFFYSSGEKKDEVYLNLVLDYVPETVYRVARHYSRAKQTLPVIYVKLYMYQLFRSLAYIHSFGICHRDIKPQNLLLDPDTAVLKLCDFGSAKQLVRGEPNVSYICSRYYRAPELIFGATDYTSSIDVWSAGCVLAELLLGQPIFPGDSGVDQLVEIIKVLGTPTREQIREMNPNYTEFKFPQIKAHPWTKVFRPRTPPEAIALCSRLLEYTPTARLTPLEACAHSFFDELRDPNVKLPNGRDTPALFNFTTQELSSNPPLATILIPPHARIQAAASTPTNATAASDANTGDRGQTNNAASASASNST

[5] = biological target: CDK-5/P35 (Homo sapiens, UniProt Q00535); assay: CDK panel (Reaction Biology); type: biochemical; conditions: tested at Reaction Biology, Inc.
[6] = biological target: CDK-3/cyclinE (Homo sapiens, UniProt Q00526); conditions: read-out: IC50 (μM) CDK-3/cyclinE; tested at Reaction Biology, Inc.
[7] = biological target: CDK-4/cyclinD1 (Homo sapiens, UniProt P11802); assay: CDK panel (Reaction Biology); type: biochemical; conditions: tested at Reaction Biology, Inc.
Sequence of CDK-4/cyclinD1 (P11802 whole entry, species assumed): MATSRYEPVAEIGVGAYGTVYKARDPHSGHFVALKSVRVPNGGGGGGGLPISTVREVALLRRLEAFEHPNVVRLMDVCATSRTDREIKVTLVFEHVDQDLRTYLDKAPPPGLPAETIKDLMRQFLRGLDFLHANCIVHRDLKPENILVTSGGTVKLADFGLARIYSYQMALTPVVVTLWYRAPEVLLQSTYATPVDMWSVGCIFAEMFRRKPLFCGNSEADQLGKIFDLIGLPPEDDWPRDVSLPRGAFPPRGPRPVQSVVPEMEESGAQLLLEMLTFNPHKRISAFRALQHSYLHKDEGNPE
Sequence of CDK-4/cyclinD1 (P24385 whole entry partner, species assumed): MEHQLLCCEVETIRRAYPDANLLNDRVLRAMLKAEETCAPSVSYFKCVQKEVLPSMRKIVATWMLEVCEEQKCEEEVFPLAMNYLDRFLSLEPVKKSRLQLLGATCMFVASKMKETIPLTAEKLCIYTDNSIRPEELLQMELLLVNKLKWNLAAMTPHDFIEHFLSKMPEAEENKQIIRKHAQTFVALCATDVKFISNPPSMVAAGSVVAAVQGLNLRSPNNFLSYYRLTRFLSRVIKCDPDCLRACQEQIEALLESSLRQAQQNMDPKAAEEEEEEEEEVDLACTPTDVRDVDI

[8] = biological target: CDK-5/P25 (Homo sapiens, UniProt Q00535); assay: CDK panel (Reaction Biology); type: biochemical; conditions: tested at Reaction Biology, Inc.
[9] = biological target: CDK-2/cyclinE (Homo sapiens, UniProt P24941); assay: CDK-2/CyclinE inhibition (Reaction Biology); type: biochemical; conditions: tested at Reaction Biology, Inc.
[10] = biological target: CDK-1/cyclinB (Homo sapiens, UniProt P06493); assay: CDK panel (Reaction Biology); type: biochemical; conditions: tested at Reaction Biology, Inc.
Sequence of CDK-1/cyclinB (P06493 whole entry, species assumed): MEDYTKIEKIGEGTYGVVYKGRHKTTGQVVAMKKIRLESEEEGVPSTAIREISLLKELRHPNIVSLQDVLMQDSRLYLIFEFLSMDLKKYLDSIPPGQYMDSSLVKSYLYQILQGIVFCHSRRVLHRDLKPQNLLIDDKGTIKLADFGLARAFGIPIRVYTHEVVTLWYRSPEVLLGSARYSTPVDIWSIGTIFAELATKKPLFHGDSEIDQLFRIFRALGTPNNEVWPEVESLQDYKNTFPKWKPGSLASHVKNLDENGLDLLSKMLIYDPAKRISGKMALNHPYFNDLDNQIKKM
Sequence of CDK-1/cyclinB (P14635 whole entry partner, species assumed): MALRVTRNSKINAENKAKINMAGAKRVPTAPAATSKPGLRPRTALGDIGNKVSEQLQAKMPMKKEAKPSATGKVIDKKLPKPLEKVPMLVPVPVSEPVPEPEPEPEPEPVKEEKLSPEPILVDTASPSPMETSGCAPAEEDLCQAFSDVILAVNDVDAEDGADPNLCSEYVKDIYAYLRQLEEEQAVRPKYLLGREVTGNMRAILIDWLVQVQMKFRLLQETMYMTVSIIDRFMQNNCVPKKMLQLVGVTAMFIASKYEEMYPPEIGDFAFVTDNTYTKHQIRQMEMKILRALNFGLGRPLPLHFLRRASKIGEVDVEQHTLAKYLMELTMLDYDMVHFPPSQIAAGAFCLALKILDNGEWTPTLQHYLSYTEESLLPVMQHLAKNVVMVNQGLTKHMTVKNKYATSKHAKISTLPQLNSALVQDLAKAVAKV

[11] = biological target: CDK-9/cyclinT1 (Homo sapiens, UniProt P50750); assay: CDK panel (Reaction Biology); type: biochemical; conditions: tested at Reaction Biology, Inc.
Sequence of CDK-9/cyclinT1 (P50750 whole entry, species assumed): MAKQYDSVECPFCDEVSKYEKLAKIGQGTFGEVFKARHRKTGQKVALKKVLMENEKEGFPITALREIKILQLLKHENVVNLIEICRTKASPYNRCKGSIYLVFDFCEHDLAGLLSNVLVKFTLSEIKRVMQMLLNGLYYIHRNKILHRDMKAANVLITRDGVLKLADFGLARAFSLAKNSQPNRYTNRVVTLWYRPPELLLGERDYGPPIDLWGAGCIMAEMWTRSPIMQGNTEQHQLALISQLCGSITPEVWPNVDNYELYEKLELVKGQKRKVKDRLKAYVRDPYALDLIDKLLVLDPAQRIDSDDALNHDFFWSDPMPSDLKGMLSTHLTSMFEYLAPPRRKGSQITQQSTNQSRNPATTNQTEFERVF
Sequence of CDK-9/cyclinT1 (O60563 whole entry partner, species assumed): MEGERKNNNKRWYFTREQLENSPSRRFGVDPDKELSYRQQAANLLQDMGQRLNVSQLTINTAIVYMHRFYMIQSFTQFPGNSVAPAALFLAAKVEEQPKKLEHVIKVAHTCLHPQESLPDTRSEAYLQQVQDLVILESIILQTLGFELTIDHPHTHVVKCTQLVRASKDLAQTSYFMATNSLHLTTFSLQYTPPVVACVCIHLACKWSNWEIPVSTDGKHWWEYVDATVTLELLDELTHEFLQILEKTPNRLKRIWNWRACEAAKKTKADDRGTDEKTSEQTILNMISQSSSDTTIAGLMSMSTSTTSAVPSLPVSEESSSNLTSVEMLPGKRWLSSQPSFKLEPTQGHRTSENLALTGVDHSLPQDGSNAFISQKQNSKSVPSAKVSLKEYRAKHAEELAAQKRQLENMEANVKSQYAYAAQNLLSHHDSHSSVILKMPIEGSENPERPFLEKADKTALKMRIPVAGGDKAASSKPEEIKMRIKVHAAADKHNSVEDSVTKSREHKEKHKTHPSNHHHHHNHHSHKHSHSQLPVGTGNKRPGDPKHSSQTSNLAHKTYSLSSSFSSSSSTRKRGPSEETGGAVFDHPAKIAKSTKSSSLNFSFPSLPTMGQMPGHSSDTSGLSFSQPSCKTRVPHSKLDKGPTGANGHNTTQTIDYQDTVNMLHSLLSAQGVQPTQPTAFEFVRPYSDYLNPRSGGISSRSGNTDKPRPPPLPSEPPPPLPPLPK

[12] = biological target: CDK-6/cyclinD3 (Homo sapiens, UniProt Q00534); assay: CDK panel (Reaction Biology); type: biochemical; conditions: tested at Reaction Biology, Inc.
Sequence of CDK-6/cyclinD3 (Q00534 whole entry, species assumed): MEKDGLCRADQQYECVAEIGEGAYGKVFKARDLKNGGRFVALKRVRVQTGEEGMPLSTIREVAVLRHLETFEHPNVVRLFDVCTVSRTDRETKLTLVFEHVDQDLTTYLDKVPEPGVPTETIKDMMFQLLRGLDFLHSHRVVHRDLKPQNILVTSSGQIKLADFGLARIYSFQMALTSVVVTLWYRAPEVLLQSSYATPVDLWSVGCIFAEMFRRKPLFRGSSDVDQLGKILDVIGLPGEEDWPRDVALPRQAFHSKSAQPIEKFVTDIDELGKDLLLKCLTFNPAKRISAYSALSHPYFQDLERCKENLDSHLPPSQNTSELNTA
Sequence of CDK-6/cyclinD3 (P30281 whole entry partner, species assumed): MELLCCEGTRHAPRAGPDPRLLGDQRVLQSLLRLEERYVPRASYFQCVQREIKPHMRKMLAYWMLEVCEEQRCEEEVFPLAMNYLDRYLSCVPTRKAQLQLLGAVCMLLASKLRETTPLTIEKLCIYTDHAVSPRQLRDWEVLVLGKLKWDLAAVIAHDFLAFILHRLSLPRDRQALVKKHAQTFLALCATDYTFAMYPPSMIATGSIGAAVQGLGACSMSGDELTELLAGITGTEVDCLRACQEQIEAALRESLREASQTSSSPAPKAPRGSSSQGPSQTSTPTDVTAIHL

[13] = biological target: CDK-2/cyclinA (Homo sapiens, UniProt P24941); assay: CDK panel (Reaction Biology); type: biochemical; conditions: tested at Reaction Biology, Inc.
[14] = system: pancreatic cancer cell lines; assay: Proliferation and survival of pancreatic cancer cells (overall statements); type: cell-based
Method: (§1) The pancreatic cancer cell lines BxPc-3, HupT3, MiaPaCa-2, Panc 04.03, and SU86.86 were obtained from ATCC (Rockville, Md.) and were grown in medium (DMEM or RPMI) containing 10% fetal calf serum and L-glutamine. Pancreatic cancer cells were plated out in duplicate into 6-wells of a 96-well microtiter plate at 2.5−4×10^3 cells per well. Four-hours post plating, individual wells were treated with diluent (DMSO) or varying concentrations of commercial compounds, AR-A014418 and SB216763, or the indicated GSK inhibitors of this invention from a concentration of 1 nM to 50 microM. […] The IC50s were calculated using XLfit (IDBS Limited, Guildford, UK).

[15] = system: GSK-3β; assay: GSK-3β activity in cells by glycogen synthase phosphorylation, Western immunoblotting; type: cell-based
[16] = system: HupT3; assay: Antiproliferation MTS assay, pancreatic cancer cells; type: cell-based; conditions: Homo sapiens, HuP-T3, as reported in Gaisina et al. (2009) J. Med. Chem. 52(7), 1853-1863
[17] = system: BXPC-3; assay: as above; type: cell-based; conditions: Homo sapiens, BXPC-3, as reported in Gaisina et al. (2009) J. Med. Chem. 52(7), 1853-1863
[18] = system: C57BL/6J mice; conditions: Hanania et al. 2005; cited from earlier work
[19] = system: XIAP; assay: NFκB-mediated expression of XIAP in pancreatic cancer cells; type: cell-based
[20] = system: OVCA432; assay: Antiproliferation assay, ovarian cancer cells; type: cell-based; conditions: ovarian cancer cell proliferation
Method: as §1
(§2) Similar antiproliferation assays were performed using ovarian cancer cells. Compound 40 is of particular interest for inhibition of ovarian cancer cell proliferation.

[21] = system: SKOV3; assay: Antiproliferation assay, ovarian cancer cells; type: cell-based; conditions: Homo sapiens, SK-OV-3; ovarian cancer cell proliferation
Method: as §1, §2

[22] = biological target: Flt-3 (Homo sapiens, UniProt P36888); assay: Kinase panel (Novartis); type: biochemical
[23] = biological target: T2, PDK1 (Homo sapiens, UniProt O15530); assay: Kinase panel (Novartis); type: biochemical
T2 sequence (O15530 1-556): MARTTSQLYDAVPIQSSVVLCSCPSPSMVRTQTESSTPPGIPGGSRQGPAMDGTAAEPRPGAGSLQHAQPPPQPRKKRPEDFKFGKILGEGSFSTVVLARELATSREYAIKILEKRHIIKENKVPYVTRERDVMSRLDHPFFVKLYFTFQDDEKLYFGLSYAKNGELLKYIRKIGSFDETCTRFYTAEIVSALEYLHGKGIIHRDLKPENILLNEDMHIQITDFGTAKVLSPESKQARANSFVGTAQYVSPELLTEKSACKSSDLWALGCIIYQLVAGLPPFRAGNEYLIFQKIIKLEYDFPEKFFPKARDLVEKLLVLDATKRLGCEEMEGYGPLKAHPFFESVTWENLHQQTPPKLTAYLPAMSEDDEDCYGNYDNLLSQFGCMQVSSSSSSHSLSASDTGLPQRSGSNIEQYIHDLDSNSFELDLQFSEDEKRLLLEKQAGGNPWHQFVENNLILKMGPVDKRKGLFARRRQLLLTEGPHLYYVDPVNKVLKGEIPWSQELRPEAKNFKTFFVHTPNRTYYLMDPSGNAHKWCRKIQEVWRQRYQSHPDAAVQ

[24] = biological target: CDK2/A (Homo sapiens, UniProt P24941); assay: Kinase panel (Novartis); type: biochemical
[25] = biological target: KDR (Homo sapiens, UniProt P35968); assay: Kinase panel (Novartis); type: biochemical
[26] = biological target: HER-1 (Homo sapiens, UniProt P00533); assay: Kinase panel (Novartis); type: biochemical
[27] = biological target: FAK (Homo sapiens, UniProt Q05397); assay: Kinase panel (Novartis); type: biochemical
[28] = biological target: Axl (Homo sapiens, UniProt P30530); assay: Kinase panel (Novartis); type: biochemical
[29] = biological target: IGF-1R (Homo sapiens, UniProt P08069); assay: Kinase panel (Novartis); type: biochemical
[30] = biological target: Ret (Homo sapiens, UniProt P07949); assay: Kinase panel (Novartis); type: biochemical
[31] = biological target: FGFR-3-K650E (Homo sapiens, UniProt P22607, K650E); assay: Kinase panel (Novartis); type: biochemical
[32] = biological target: c-Abl (Homo sapiens, UniProt P00519); assay: Kinase panel (Novartis); type: biochemical
[33] = biological target: Tek (Homo sapiens, UniProt Q02763); assay: Kinase panel (Novartis); type: biochemical
[34] = biological target: c-Abl-T3151 (Homo sapiens, UniProt P00519, T315I); assay: Kinase panel (Novartis); type: biochemical
[35] = biological target: c-Met (Homo sapiens, UniProt P08581); assay: Kinase panel (Novartis); type: biochemical
[36] = biological target: b-Raf-V599E (Homo sapiens, UniProt P15056, V600E); assay: Kinase panel (Novartis); type: biochemical
[37] = biological target: EphB4 (Homo sapiens, UniProt P54760); assay: Kinase panel (Novartis); type: biochemical
[38] = biological target: c-src (Homo sapiens, UniProt P12931); assay: Kinase panel (Novartis); type: biochemical
[39] = biological target: JAK-2 (Homo sapiens, UniProt O60674); assay: Kinase panel (Novartis); type: biochemical
[40] = biological target: GSK3α (Homo sapiens, UniProt P49840); assay: Inhibition of various kinases (% inhibition); type: biochemical
Sequence of GSK3α (P49840 whole entry, species assumed): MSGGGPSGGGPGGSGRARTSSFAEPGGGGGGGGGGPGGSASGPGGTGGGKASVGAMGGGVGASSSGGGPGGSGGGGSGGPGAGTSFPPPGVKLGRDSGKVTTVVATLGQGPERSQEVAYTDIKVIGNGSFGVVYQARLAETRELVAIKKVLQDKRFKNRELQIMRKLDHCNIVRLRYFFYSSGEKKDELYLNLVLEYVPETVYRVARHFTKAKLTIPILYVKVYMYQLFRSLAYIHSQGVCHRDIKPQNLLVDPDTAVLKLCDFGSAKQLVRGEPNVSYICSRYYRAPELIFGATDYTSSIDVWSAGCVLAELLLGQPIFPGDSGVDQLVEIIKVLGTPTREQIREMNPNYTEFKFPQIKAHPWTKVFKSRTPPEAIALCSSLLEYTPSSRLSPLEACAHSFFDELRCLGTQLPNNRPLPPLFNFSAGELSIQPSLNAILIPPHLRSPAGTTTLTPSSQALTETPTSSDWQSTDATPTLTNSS
Text: (§3) Additional examples of selectivity are illustrated in Table 4.

[41] = biological target: T2, PDK1; assay: Inhibition of various kinases (% inhibition); type: biochemical
Text: as §3

[42] = biological target: CDK2 (Homo sapiens, UniProt P24941); assay: Inhibition of various kinases (% inhibition); type: biochemical
Text: as §3

[43] = biological target: PKCβ2 (Homo sapiens, UniProt P05771); assay: Inhibition of various kinases (% inhibition); type: biochemical
Sequence of PKCβ2 (P05771 1-673 isoform P05771-2): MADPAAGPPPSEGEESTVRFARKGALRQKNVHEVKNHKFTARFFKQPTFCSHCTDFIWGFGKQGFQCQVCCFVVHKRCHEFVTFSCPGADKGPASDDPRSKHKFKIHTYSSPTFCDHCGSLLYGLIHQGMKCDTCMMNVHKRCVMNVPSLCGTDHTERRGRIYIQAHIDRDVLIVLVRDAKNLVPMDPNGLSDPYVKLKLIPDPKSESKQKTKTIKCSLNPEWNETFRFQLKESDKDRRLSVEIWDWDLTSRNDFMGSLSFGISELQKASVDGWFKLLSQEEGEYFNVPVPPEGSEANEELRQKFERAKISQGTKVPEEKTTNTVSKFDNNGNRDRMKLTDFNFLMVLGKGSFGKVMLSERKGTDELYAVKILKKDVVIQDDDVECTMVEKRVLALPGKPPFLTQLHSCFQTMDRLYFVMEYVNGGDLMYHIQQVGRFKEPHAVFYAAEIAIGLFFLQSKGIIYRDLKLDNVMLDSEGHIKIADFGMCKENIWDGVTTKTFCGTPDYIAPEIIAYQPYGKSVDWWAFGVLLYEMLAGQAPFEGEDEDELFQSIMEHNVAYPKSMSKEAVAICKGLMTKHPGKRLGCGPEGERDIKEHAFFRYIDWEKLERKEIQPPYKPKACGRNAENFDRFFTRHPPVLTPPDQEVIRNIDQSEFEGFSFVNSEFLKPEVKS
Text: as §3

[44] = MIA PaCa-2, as reported in Gaisina et al. (2009) J. Med. Chem. 52(7), 1853-1863

Structure (SMILES): Cn1cc(C2=C(c3ccc(Cl)cc3Cl)C(=O)NC2=O)c2ccccc21 [SB216763, reference compound]
- IC50 [1, 44]: 25 ± 0.9 µM
- IC50 ([1]; MIA PaCa-2, 72 hrs, MTS): 25 µM
- Pancreatic cancer cell proliferation, reference compounds [2]: significant decrease in pancreatic cancer cell proliferation

Structure (SMILES): CCCC(CCC)C(=O)O [valporate]
- Sensorimotor gating (prepulse inhibition) [3]: improve sensorimotor gating

Structure (SMILES): COCc1cccc2c(C3=C(c4coc5ccccc45)C(=O)NC3=O)cn(C)c12 [Compound 52, 3-Benzofuran-3-yl-4-(7-methoxymethyl-1-methyl-1H-indol-3-yl)-pyrrole-2,5-dione]
- IC50 [4]: 0.23 ± 0.04 nM
- IC50 [5]: 12.7 µM
- IC50 [6]: 17.7 µM
- IC50 [7]: 8.62 µM
- IC50 [8]: 12.9 µM
- IC50 [9]: 3880 nM
- IC50 [10]: 8.53 µM
- IC50 [11]: 16 µM
- IC50 [12]: 8.33 µM
- IC50 [13]: 4.09 µM

Structure (SMILES): COc1cc2c(C3=C(c4coc5ccccc45)C(=O)NC3=O)cn(C)c2cc1Cl [Compound 42, 3-Benzofuran-3-yl-4-(6-chloro-5-methoxy-1-methyl-1H-indol-3-yl)-pyrrole-2,5-dione]
- IC50 ([1]; MIA PaCa-2, 72 hrs, MTS): > 50 µM
- IC50 [4]: 440 ± 22 nM
- Proliferation and survival of pancreatic cancer cells [14]: did not affect GSK-3β activity, proliferation or survival
- GSK-3β activity in pancreatic cancer cells (phosphorylation of glycogen synthase) [15]: did not affect GSK-3β activity

Structure (SMILES): COc1ccc(CNC(=O)Nc2ncc([N+](=O)[O-])s2)cc1 [AR-A014418, reference compound]
- IC50 [1, 44]: 29 ± 1.7 µM
- IC50 ([1]; MIA PaCa-2, 72 hrs, MTS): 25 µM
- IC50 [16]: 22 ± 2.1 µM
- IC50 [17]: 14 ± 0.6 µM
- Pancreatic cancer cell proliferation, reference compounds [2]: significant decrease in pancreatic cancer cell proliferation

Structure (SMILES): Nc1nnc(-c2cccc(Cl)c2Cl)c(N)n1 [lamotrigine]
- Sensorimotor gating (prepulse inhibition) [3]: improve sensorimotor gating
- Block of CDP + amphetamine hyperactivity by mood stabilizers [18]: blocked

Structure (SMILES): Cn1cc(C2=C(c3coc4ccc(F)cc34)C(=O)NC2=O)c2cc3c(cc21)OCO3 [Compound 40, 3-(5-Fluoro-benzofuran-3-yl)-4-(5-methyl-5H-[1,3]dioxolo[4,5-f]indol-7-yl)-pyrrole-2,5-dione]
- NFκB-mediated expression of XIAP [19]: pronounced decrease in NFκB-mediated expression of XIAP
- IC50 [4]: 708 ± 156 nM
- IC50 [20]: 11.2 µM
- IC50 [21]: 10.5 µM
- GSK-3β activity in pancreatic cancer cells (phosphorylation of glycogen synthase) [15]: effectively inhibited GSK-3β activity

Structure (SMILES): Cn1cc(C2=C(c3coc4cc(CO)ccc34)C(=O)NC2=O)c2cc(F)c(Cl)cc21 [Compound 13, 3-(6-Chloro-5-fluoro-1-methyl-1H-indol-3-yl)-4-(6-hydroxymethyl-benzofuran-3-yl)-pyrrole-2,5-dione]
- IC50 [4]: 0.95 ± 0.19 nM
- IC50 [6]: 25.1 µM
- IC50 [7]: 18.3 µM
- IC50 [9]: 11700 nM
- IC50 [10]: 13.4 µM
- IC50 [11]: 5.4 µM
- IC50 [12]: 11.6 µM
- IC50 [13]: 10.6 µM

Structure (SMILES): Cn1cc(C2=C(c3coc4ccccc34)C(=O)NC2=O)c2ccc(O)cc21 [Compound 45, 3-Benzofuran-3-yl-4-(6-hydroxy-1-methyl-1H-indol-3-yl)-pyrrole-2,5-dione]
- IC50 [22]: > 10 µM
- IC50 [23]: 0.73 µM
- IC50 [4]: 15 ± 3 nM
- IC50 [24]: > 10 µM
- IC50 [25]: 2.2 µM
- IC50 [26]: 6.3 µM
- IC50 [27]: > 10 µM
- IC50 [28]: > 10 µM
- IC50 [29]: > 10 µM
- IC50 [30]: 5 µM
- IC50 [31]: 7 µM
- IC50 [32]: > 10 µM
- IC50 [33]: > 10 µM
- IC50 [34]: > 10 µM
- IC50 [35]: > 10 µM
- IC50 [36]: > 10 µM
- IC50 [37]: > 10 µM
- IC50 [38]: 4.5 µM
- IC50 [39]: > 10 µM

Structure (SMILES): COc1cccc2c(C3=C(c4cn(C)c5cc(I)c(F)cc45)C(=O)NC3=O)coc12 [Compound 10, 3-(5-Fluoro-6-iodo-1-methyl-1H-indol-3-yl)-4-(7-methoxy-benzofuran-3-yl)-pyrrole-2,5-dione]
- NFκB-mediated expression of XIAP [19]: pronounced decrease in NFκB-mediated expression of XIAP
- IC50 [4]: 247 ± 28 nM
- GSK-3β activity in pancreatic cancer cells (phosphorylation of glycogen synthase) [15]: effectively inhibited GSK-3β activity
- inhibition at 1 µM ([40]; 1 μM): 60%
- inhibition at 10 µM ([40]; 10 μM): 95%
- inhibition at 1 µM ([41]; 1 μM): -1%
- inhibition at 10 µM ([41]; 10 μM): 6%
- inhibition at 1 µM ([42]; 1 μM): 9%
- inhibition at 10 µM ([42]; 10 μM): 35%
- inhibition at 1 µM ([43]; 1 μM): 2%
- inhibition at 10 µM ([43]; 10 μM): 15%
